Results published in US4831041A, “Imidazopyridine compounds and processes for preparation thereof” (Fujisawa Pharmaceutical Co., Ltd., priority 1986, dated 1989).

Assays:
Stress Ulcer = assay: Inhibition on Stress Ulcer; type: in vivo, Sprague-Dawley rats; settings: 32 mg/kg, oral, just before immobilization in water bath at 22° C.; seven hours; mean ulcer area vs control
Protocol: (B) Inhibition on Stress Ulcer
Five Sprague-Dawley rats weighing about 200 g were used per group. Each animal was immobilized in a small cage and put in a water bath allowing to respire. The temperature of the water bath kept at 22° C. The test compound was administered orally just before the immobilization. Seven hours later, the animals were sacrificed and their stomachs were removed. The stomach was then fixed with 2% formalin. The area of ulcers was measured for each animal. The mean area (mm^2) in the medicated animals was compared with that in the control animals.

ethanol ulcer = assay: Inhibition on ethanol ulcer; type: in vivo, Sprague-Dawley rats; settings: 32 mg/kg, oral, 30 minutes before absolute ethanol (5 ml/kg); rats sacrificed one hour later; mean ulcer area vs control
Protocol: (A) Inhibition on ethanol ulcer
Five male Sprague-Dawley rats, aged 7 weeks and weighing about 200 g, were used per group for the study on ethanol ulcer after the fast for 24 hours.
Test compound was suspended in 0.1% methylcellulose aqueous solution, and the suspension (5 ml/kg) was orally given to each rat.
The control group was given a vehicle, i.e. 0.1% methylcellulose aqueous solution (5 ml/kg), alone in the same way.
Absolute ethanol (5 ml/kg) was orally administered 30 minutes after dosing with test compound, and one hour later, the rats were sacrificed and their stomachs were removed. The area of ulcers of each rat was measured. The mean area […] in the medicated group was compared with that in the control group.

| SMILES | Inhibition % (stress ulcer area) (Stress Ulcer) [%] | Inhibition % (ethanol ulcer area) (ethanol ulcer) [%] |
| --- | --- | --- |
| C#CCc1c(C)nc2c(OCc3c(C)cccc3NC(=O)OC)cccn12 [Test Compound (1), 8-(2-Methoxycarbonylamino-6-methylbenzyloxy)-2-methyl-3-(2-propynyl)imidazo[1,2-a]pyridine] | 100 | 93.2 |
| C#CCc1c(C)nc2c(OCc3c(C)cccc3NC(C)=O)cccn12 [Test Compound (2), 8-(2-Acetamido-6-methylbenzyloxy)-2-methyl-3(2-propynyl)imidazo[1,2-a]pyridine] | 100 |  |
| C#CCc1c(C)nc2c(OCc3c(C)cccc3NC(N)=O)cccn12 [Test Compound (3), 2-methyl-8-(2-methyl-6-ureidobenzyloxy)-3-(2propynyl)imidazo[1,2-a]pyridin] | 100 |  |
| C#CCc1c(C)nc2c(OCc3c(C)cccc3NC(N)=S)cccn12 [Test Compound (4), 2-Methyl-8-(2-methyl-6-thioureidobenzyloxy)-3(2-propynyl)imidazo[1,2-a]pyridine] | 100 |  |
